Data taken from patent publication US20230116703A1, “NOVEL ERGOLINES AND METHODS OF TREATING MOOD DISORDERS” (priority 2021, published 2023).
Like-named read-outs stand apart in the source and are kept apart here.

Columns and labels:
[1] = Metabolic stability in human liver microsomes (HLM); type: in vitro ADME; conditions: for t1/2: 1 μM, 0.50 mg protein per mL; for microsomal CLint at 1 μM: both sexes, human, pooled human liver microsomes, pH 7.4, 0.50 mg protein per mL
Description: HLM Stability. Pooled HLM from adult male and female donors (Corning 452117) were used.

[2] = biological target: T1, Alpha2A receptor (Homo sapiens, UniProt P08913); experiment: FLIPR Ca^2+ flux agonist assay at Alpha2A; type: cell-based
T1 sequence (P08913 1-465): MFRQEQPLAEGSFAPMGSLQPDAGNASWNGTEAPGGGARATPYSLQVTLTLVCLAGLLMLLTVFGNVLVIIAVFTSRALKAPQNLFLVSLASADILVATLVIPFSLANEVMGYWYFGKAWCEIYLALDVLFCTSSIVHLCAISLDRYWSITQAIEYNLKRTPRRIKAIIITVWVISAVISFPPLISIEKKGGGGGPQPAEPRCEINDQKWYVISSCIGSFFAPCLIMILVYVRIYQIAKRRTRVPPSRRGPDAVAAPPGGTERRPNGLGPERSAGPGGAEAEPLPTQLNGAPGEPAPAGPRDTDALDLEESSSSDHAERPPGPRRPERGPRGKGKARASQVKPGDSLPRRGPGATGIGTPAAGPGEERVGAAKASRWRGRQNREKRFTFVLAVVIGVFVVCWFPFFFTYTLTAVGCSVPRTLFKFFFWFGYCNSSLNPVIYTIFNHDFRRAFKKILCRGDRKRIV
Description: Functional Assays at Adrenergic and Dopamine Receptors. Agonist activity at Alpha1A, Alpha2A, D1, and D2 receptors was determined using a FLIPR Ca^2+ flux assay at WuXi AppTec (Hong Kong) Limited according to their standard protocols. Briefly, stably transfected cells expressing the receptor of interest were grown and plated in a 384 well plate and incubated at 37° C. and 5% CO2 overnight. A solution of 250 mM probenecid in 1 mL FLIPR assay buffer was prepared fresh. This was combined with a fluorescent dye (Fluo-4 Direct™) to make a final assay concentration of 2.5 mM. […] The fluorescent dye was then added to the assay plate along with assay buffer to a final volume of 40 μL. The cell plate was incubated for 50 min at 37° C. and 5% CO2 and placed into the FLIPR Tetra along with the compound plate. 10 μL of references and compounds were then transferred from the compound plate into the cell plate and the fluorescent signal was read.

[3] = biological target: T2, 5-HT2A receptor (Homo sapiens, UniProt P28223); experiment: PathHunter beta-arrestin recruitment assay at 5-HT2A; type: cell-based; conditions: for agonist type in arrestin recruitment assay (in words): 5-HT2A beta-arrestin
T2 construct: host or cells: HEK293
T2 sequence (P28223 whole entry): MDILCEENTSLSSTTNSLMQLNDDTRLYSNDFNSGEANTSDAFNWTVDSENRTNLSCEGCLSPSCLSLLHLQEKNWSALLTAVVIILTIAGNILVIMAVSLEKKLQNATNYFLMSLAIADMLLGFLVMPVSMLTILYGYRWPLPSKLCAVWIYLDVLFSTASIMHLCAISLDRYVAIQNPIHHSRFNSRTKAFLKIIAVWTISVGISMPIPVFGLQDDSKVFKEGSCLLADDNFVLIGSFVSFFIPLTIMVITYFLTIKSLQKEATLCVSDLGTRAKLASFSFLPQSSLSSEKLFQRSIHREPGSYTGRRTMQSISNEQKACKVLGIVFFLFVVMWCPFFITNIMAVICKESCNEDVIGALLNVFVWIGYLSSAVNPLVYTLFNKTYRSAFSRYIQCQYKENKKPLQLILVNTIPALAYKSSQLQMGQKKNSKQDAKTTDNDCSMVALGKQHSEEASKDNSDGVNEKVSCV
Method in brief: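 Cells co-express PK-tagged 5-HT2A and beta-arrestin fused to a beta-galactosidase deletion mutant, so arrestin recruitment restores enzyme activity, read by chemiluminescence; cells were held at 37° C before testing. Agonist % activity = RLU over vehicle, relative to the maximal control ligand.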

[4] = tested on: Sprague Dawley rats; experiment: Forced swim test (FST) in rats; type: in vivo, rat; conditions: for efficacy in FST compared to positive control desipramine (in words): 0.032 mg/kg, SC
Description: Compound 1 induced antidepressant-like effects in the forced swim test (FST) in rats with a 23.5-h pre-treatment time (FIG. 2).
Animals. Male Sprague Dawley rats, aged 9-10 weeks, were used in this experiment. Animals were housed in groups of 2 under controlled temperature (22±3° C.) and relative humidity (30-70%) conditions, with 12-hour light/dark cycles, and with ad libitum food and water. This study was carried out in strict accordance with the requirements of the Committee for the Purpose of Control and Supervision of Experiments on Animals (CPCSEA), India. All efforts were made to minimize suffering.
Drugs and Drug Administration. Compound 1 was synthesized as described above. Desipramine HCl was commercially obtained. The test compound, saline vehicle, and the positive control desipramine were administered subcutaneously (SC), with doses calculated based on the freebase. Normal saline was used as the vehicle. All compounds were administered at a volume of 5 mL/kg. The test compound and vehicle were administered 0.5 h after the start of the training swim (Swim 1) and 23.5 h before the test swim (Swim 2). Desipramine was administered 3 times, at 23.5 h, 5 h, and 1 h before the test swim (Swim 2), each time at a dose of 20 mg/kg. Group size was n=10 per treatment.
Forced Swim Test (FST). […] Rats were handled for about 2 min daily for the 5 days prior to the beginning of the experimental procedure. On the first day of the experiment (i.e., Day 0), post randomization, training swim sessions (Swim 1) were conducted between 12:00 and 18:00 h with all animals by placing rats in individual glass cylinders (46 cm tall×20 cm in diameter) containing 23-25° C. water 30 cm deep for 15 minutes. At the conclusion of Swim 1, animals were dried with paper towels, placed in heated drying cages for 15 minutes, and then returned to their home cages. […]
Behavioral scoring was conducted by observers who were blind to the treatment groups. Animals were continuously observed during Swim 2 and the total time spent engaging in the following behaviors was recorded: immobile, swimming, and climbing. […]

[5] = biological target: T3, 5-HT2B receptor (Homo sapiens, UniProt P41595); experiment: 5-HT2B receptor radioligand binding with [^3H]LSD
T3 construct: host or cells: HEK293
T3 sequence (P41595 whole entry): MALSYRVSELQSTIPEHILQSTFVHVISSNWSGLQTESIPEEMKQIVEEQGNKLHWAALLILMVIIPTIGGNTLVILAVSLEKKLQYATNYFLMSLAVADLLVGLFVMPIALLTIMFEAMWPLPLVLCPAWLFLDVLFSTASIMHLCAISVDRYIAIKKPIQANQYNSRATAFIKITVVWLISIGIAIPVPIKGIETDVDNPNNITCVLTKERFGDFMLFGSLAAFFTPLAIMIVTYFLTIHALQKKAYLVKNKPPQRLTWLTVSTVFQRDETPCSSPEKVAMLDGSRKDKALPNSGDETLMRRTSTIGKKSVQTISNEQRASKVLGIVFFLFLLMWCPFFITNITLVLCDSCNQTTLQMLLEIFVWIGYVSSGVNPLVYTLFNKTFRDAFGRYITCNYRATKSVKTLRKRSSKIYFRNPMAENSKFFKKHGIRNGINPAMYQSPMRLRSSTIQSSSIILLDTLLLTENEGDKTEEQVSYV

[6] = Ca^2+ flux, agonist, read-out: Alpha 2A EC50
[7] = beta-arrestin recruitment, read-out: 5-HT2A Arrestin EC50

| SMILES | t1/2 [1] | microsomal CLint at 1 μM [1] | EC50 [2] | EC50 [3] | agonist type in arrestin recruitment assay (in words) [3] | immobility time relative to vehicle (in words) ([4]; rat FST, 23.5 h after a single SC administration) | Ki [5] | efficacy in FST compared to positive control desipramine (in words) [4] | EC50 [2, 6] | EC50 [3, 7] |
| --- | --- | --- | --- | --- | --- | --- | --- | --- | --- | --- |
| CCCN1C[C@H](C(=O)N(CC)CC)C=C2c3cccc4[nH]cc(c34)C[C@H]21 [Compound 1, (6aR,9R)—N,N-diethyl-7-propyl-4,6,6a,7,8,9-hexahydroindolo[4,3-fg]quinoline-9-carboxamide] | 15.1 min | 91.6 µL/min/mg | 42.2 nM | 2.01 nM | full agonists | reduced immobility time | – | – | – | – |
| CCN(CC)C(=O)[C@@H]1C=C2c3cccc4[nH]cc(c34)C[C@H]2N(CCCF)C1 [Compound 2, (6aR,9R)—N,N-diethyl-7-(3-fluoropropyl)-4,6,6a,7,8,9-hexahydroindolo[4,3-fg]quinoline-9-carboxamide] | 19.061 min | 72.7 µL/min/mg | 1000 nM | 2.27 nM | full agonists | – | 4.1 nM | as efficacious as the positive control desipramine | – | – |
| CCCN1C[C@H](C(=O)N[C@H](C)CC)C=C2c3cccc4[nH]cc(c34)C[C@H]21 [Compound 3, (6aR,9R)—N—((R)-sec-butyl)-7-propyl-4,6,6a,7,8,9-hexahydroindolo[4,3-fg]quinoline-9-carboxamide] | 4.2 min | 331 µL/min/mg | 3640 nM | < 0.509 nM | full agonists | – | 4.09 nM | – | – | – |
| CCCN1C[C@H](C(=O)N2[C@@H](C)C[C@@H]2C)C=C2c3cccc4[nH]cc(c34)C[C@H]21 [Compound 4, ((2S,4S)-2,4-dimethylazetidin-1-yl)((6aR,9R)-7-propyl-4,6,6a,7,8,9-hexahydroindolo[4,3-fg]quinolin-9-yl)methanone] | 10.6 min | 130 µL/min/mg | 1080 nM | 1.44 nM | full agonists | – | 17.7 nM | as efficacious as the positive control desipramine | – | – |
| CCCN1C[C@H](C(=O)NC(CC)CC)C=C2c3cccc4[nH]cc(c34)C[C@H]21 [Compound 6, (6aR,9R)—N-(pentan-3-yl)-7-propyl-4,6,6a,7,8,9-hexahydroindolo[4,3-fg]quinoline-9-carboxamide] | 1.607 min | 862 µL/min/mg | – | 1.91 nM | full agonists | – | 3.33 nM | – | – | – |
| CCN(CC)C(=O)[C@@H]1C=C2c3cccc4[nH]cc(c34)C[C@H]2N(Cc2ccccc2OC)C1 [Compound 10, (6aR,9R)—N,N-diethyl-7-(2-methoxybenzyl)-4,6,6a,7,8,9-hexahydroindolo[4,3-fg]quinoline-9-carboxamide] | 7.3 min | 190 µL/min/mg | – | – | partial agonists | – | – | – | > 31600 nM | 8.47 nM |
| CCN(CC)C(=O)[C@@H]1C=C2c3cccc4[nH]cc(c34)C[C@H]2N(CCc2ccccc2OC)C1 [Compound 11, (6aR,9R)—N,N-diethyl-7-(2-methoxyphenethyl)-4,6,6a,7,8,9-hexahydroindolo[4,3-fg]quinoline-9-carboxamide] | 2.372 min | 584 µL/min/mg | – | – | partial agonists | – | – | – | > 31600 nM | 1.27 nM |
